This note sets out measurements from patent publication US20240199630A1, “IMIDAZO[1,2-B]PYRIDAZINE BASED TRICYCLIC COMPOUNDS AS INHIBITORS OF HASPIN AND THERAPEUTIC USES THEREOF” (FUNDACIÓN DEL SECTOR PÚBLICO ESTATAL CENTRO NACIONAL DE …, priority 2021, published 2024).

The structures appear in SMILES notation. Bounds are passed on as bounds.

Sequence of HASPIN (Q8TF76 whole entry): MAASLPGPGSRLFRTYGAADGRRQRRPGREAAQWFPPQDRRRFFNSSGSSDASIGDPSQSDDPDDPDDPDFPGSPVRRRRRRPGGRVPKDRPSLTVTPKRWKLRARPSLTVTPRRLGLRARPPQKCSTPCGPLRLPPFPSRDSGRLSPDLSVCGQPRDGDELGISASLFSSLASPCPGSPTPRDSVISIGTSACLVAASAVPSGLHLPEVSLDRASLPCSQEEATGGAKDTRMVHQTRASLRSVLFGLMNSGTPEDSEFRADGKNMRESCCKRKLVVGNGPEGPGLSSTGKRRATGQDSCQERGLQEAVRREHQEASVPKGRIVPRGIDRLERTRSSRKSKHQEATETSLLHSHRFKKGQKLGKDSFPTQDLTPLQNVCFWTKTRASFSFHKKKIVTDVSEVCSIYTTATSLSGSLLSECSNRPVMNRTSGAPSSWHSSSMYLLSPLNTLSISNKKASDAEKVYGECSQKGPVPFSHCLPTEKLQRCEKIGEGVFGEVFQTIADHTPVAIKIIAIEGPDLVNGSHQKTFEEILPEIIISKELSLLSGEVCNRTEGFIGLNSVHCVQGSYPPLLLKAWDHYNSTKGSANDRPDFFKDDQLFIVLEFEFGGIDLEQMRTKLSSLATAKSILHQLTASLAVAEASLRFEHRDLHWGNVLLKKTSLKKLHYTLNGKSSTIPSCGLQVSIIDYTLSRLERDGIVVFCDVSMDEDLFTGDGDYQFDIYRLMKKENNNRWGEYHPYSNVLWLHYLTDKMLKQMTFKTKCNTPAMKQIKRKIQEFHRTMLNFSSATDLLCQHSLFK
Sequence of intracellular HASPIN (phosphorylation of the HASPIN substrate H3T3) (Q8TF76 whole entry): as above

The first assay deals with PIM1 (Homo sapiens (Human), UniProt P11309). Kind of assay: PIM1 activity, methodology of WO2013/005041. Format: biochemical. The conditions noted are these: compounds from the present invention.
Sequence of PIM1 (P11309 whole entry, species assumed): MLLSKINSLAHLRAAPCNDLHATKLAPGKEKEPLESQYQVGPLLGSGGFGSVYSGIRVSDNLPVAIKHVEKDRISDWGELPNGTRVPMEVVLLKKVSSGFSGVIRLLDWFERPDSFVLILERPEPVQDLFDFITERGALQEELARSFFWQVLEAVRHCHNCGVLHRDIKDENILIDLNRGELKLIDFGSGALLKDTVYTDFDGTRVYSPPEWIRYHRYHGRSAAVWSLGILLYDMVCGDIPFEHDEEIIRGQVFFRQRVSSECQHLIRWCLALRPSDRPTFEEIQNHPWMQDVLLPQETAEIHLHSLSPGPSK
For `Cc1nc2c3c(c(N4CCCC(CN)C4)nn2c1-c1ccnc(Cl)c1)CCCO3` (centres unmarked) [Compound 2, C-{1-[3-(2-Chloro-pyridin-4-yl)-2-methyl-7,8-dihydro-6H-9-oxa-1,3a,4-triaza-cyclopenta[a]naphthalen-5-yl]-piperidin-3-yl}-methylamine], half-maximal inhibition (IC50) required 3400 nM.
Same read-out and setting: next, `Cc1nc2c3c(c(N4CCC[C@@H](CN)C4)nn2c1-c1ccnc(Cl)c1)CCCO3` [Compound 3, C-{(S)-1-[3-(2-Chloro-pyridin-4-yl)-2-methyl-7,8-dihydro-6H-9-oxa-1,3a,4-triaza-cyclopenta[a]naphthalen-5-yl]-piperidin-3-yl}-methylamine]: > 10000 nM; `Cc1nc2c3c(c(N4CCC[C@H](CN)C4)nn2c1-c1ccnc(Cl)c1)CCCO3` [Compound 4, C-{(R)-1-[3-(2-Chloro-pyridin-4-yl)-2-methyl-7,8-dihydro-6H-9-oxa-1,3a,4-triaza-cyclopenta[a]naphthalen-5-yl]-piperidin-3-yl}-methylamine]: 2270 nM; `Cc1nc2c3c(c(NCC4(F)CCNCC4)nn2c1-c1ccncc1)CCCO3` [Compound 6, (4-Fluoro-piperidin-4-ylmethyl)-(2-methyl-3-pyridin-4-yl-7,8-dihydro-6H-9-oxa-1,3a,4-triaza-cyclopenta[a]naphthalen-5-yl)-amine]: 3300 nM.
On the same count and under the same terms, next, `Cc1nc2c3c(c(NCC4CCNCC4)nn2c1-c1ccnc(Cl)c1)N(C)CCO3` [Compound 10, [3-(2-Chloro-pyridin-4-yl)-2,6-dimethyl-7,8-dihydro-6H-9-oxa-1,3a,4,6-tetraaza-cyclopenta[a]naphthalen-5-yl]-piperidin-4-ylmethyl-amine]: 1090 nM.
`Cc1nc2c3c(c(NCCCCO)nn2c1-c1ccnc(Cl)c1)N(C)CCO3` [Compound 12, 4-[3-(2-Chloro-pyridin-4-yl)-2,6-dimethyl-7,8-dihydro-6H-9-oxa-1,3a,4,6-tetraaza-cyclopenta[a]naphthalen-5-ylamino]-butan-1-ol]: it took 1810 nM to reach half-maximal inhibition (IC50).
The same measure, in the same setting: next, `Cc1nc2c3c(c(N[C@H]4CC[C@@](C)(O)CC4)nn2c1-c1ccncc1)OCCN3C` [Compound 27, 4-(2,9-Dimethyl-3-pyridin-4-yl-8,9-dihydro-7H-6-oxa-1,3a,4,9-tetraaza-cyclopenta[a]naphthalen-5-ylamino)-1-methyl-cyclohexanol]: 3180 nM.

In another assay the target is HASPIN (Homo sapiens (Human), UniProt Q8TF76). Kind of assay: HASPIN biochemical assay (ADP-Glo, HASPIN autophosphorylation). The conditions noted are these: ATP 150 μM, 60 min at 30° C. On the procedure:
HASPIN biochemical Assay: The biochemical assay to measure HASPIN activity relies on the ADP-Glo™ assay kit (Promega) that determines the amount of ADP as direct product of the kinase enzyme activity. Assay conditions were as indicated by the kit manufacturers with the following adaptations for the kinase activity step: Kinase assay buffer and assay volume (15 mM HEPES pH 7.5, 20 mM NaCl, 1 mM EGTA, 0.02% TWEEN 20, 10 mM MgCl2, 0.1 mg/ml BGG)/25 μL assay volume). Incubation time and temperature: 60 min at 30° C. HASPIN final concentration: 0.9 μg/mL. ATP final concentration: 150 μM. HASPIN autophosphorylation was measured. Assays were performed in 384-well plates. The final outcome of the coupled reactions provided by the kit is the release of luciferase and has been measured with a multilabel HTS counter Victor V/Envision. Values were normalized against the control activity included (100% HASPIN activity, without compound). Values were plotted against the inhibitor concentration and fit to a sigmoid dose-response curve using Activity base by IDBS software.
The compound `Cc1nc2c3c(c(NCC4(F)CCNCC4)nn2c1-c1ccnc(Cl)c1)CC(C)O3` (racemic) [Compound 33, [3-(2-Chloro-pyridin-4-yl)-2,7-dimethyl-6,7-dihydro-8-oxa-1,3a,4-triaza-as-indacen-5-yl]-(4-fluoro-piperidin-4-ylmethyl)-amine] returned a half-maximal inhibitory concentration (IC50) of 6.37 nM.
On the same count and under the same terms, next, `Cc1nc2c3c(c(NCC4(F)CCNCC4)nn2c1-c1ccnc(Cl)c1)C[C@@H](C)O3` (single isomer, unassigned) [Compound 34]: 5.87 nM.
Still for that read-out and setting: next, `Cc1nc2c3c(c(NCC4(F)CCNCC4)nn2c1-c1ccnc(Cl)c1)C[C@H](C)O3` (single isomer, unassigned) [Compound 35]: 20.7 nM.

The next assay addresses intracellular HASPIN (phosphorylation of the HASPIN substrate H3T3) (Homo sapiens (Human), UniProt Q8TF76). As to the kind of experiment: Cellular HASPIN inhibition assay (phosphorylation of H3T3), western blot in MV4:11 cells. The conditions noted are these: 8 hours of treatment, read-out: pH3T3 EC50. Format: cell-based. How it is done:
10 min. The protein content of the lysates is determined by DC protein assay (Biorad, Ref. 5000116).
Consider `Cc1nc2c3c(c(NCC4(F)CCNCC4)nn2c1-c1ccnc(Cl)c1)C[C@@H](C)O3` (single isomer, unassigned) [Compound 34], for which the EC50 is < 50 nM.
As to `Cc1nc2c3c(c(NCC4(F)CCNCC4)nn2c1-c1ccnc(Cl)c1)C[C@H](C)O3` (single isomer, unassigned) [Compound 35], the EC50 was < 50 nM.

A further assay deals with MV4:11 (AML cell line). As to the kind of experiment: Combination viability assay (CellTiter-Glo), Bliss combination index. The conditions noted are these: MV4:11 cell line, 72 h; agent 1 μM combined with compound 3 at 2 μM; CI<1 synergism.
Experimental: The cells were harvested just before reaching confluency, counted with a haemocytometer and diluted with media. Cells were then seeded in 96-well microtiter plates at a density of 5,000 cells/well. Cells were incubated for 24 hours before adding the compounds. Compounds were weighed out and diluted with DMSO to a final concentration of 10 mM. From here a “mother plate” was prepared at 200X the final concentration in the culture. The final concentration of DMSO in the tissue culture media should not exceed 1%. […] Each compound was assayed in duplicate. Cells were exposed to the compounds for 72 h and then processed for CellTiter-Glo® Luminescent Cell Viability Assay (Promega) read out according to manufacturer's Instruction and read on EndVision (Perkin Elmer). Percentage of viability inhibition was calculated using ActivityBase from IDBS. Potential synergy between drugs was evaluated by calculating the combination index (CI) based on the Bliss Independence model, whereby the CI was calculated with the following equation:
where Ea indicates the viability effect of drug A, Eb indicates the viability effect of drug B and Eab indicates the viability effect of the drug combination. CI<1 indicates synergism, CI=1 indicates additivity and CI>1 indicates antagonism.
In the case of `Cc1nc(NC(=O)N2CCC[C@H]2C(N)=O)sc1-c1ccnc(C(C)(C)C(F)(F)F)c1` [BYL-719, Alpelisib], the “CI (combination index)” value is on record as 0.59.
On the same count and under the same terms, next, `CC[C@H](Nc1ncnc2[nH]cnc12)c1nc2cccc(F)c2c(=O)n1-c1ccccc1` [CAL-101, IDELALISIB, Idelalisib]: 0.67.
Take `CCN(CC)C(=S)SSC(=S)N(CC)CC` [Disulfiram]: the “CI (combination index)” value turned out to be 0.67.
Regarding `CN(NC(=O)CC(=O)NN(C)C(=S)c1ccccc1)C(=S)c1ccccc1` [ELESCLOMOL, Elesclomol], the “CI (combination index)” value is on record as 0.78.
Consider `C#Cc1cccc(Nc2ncnc3cc(OCCOC)c(OCCOC)cc23)c1` [ERLOTINIB, Erlotinib], for which the “CI (combination index)” value is given as 0.62.
Still for that read-out and setting: next, `C[C@]12CC[C@@H]3c4ccc(O)cc4C[C@@H](CCCCCCCCC[S+]([O-])CCCC(F)(F)C(F)(F)F)[C@H]3[C@@H]1CC[C@@H]2O` (some centres unmarked) [Fulvestrant]: 0.60; `CS(=O)(=O)N1CCN(Cc2cc3nc(-c4cccc5[nH]ncc45)nc(N4CCOCC4)c3s2)CC1` [GDC-0941, Pictilisib]: 0.85.
As for `NC1(c2ccc(-c3nc4ccn5c(=O)[nH]nc5c4cc3-c3ccccc3)cc2)CCC1` [MK-2206], the “CI (combination index)” value is reported as 0.64.
Regarding `Cc1ccc(Nc2nccc(N(C)c3ccc4c(C)n(C)nc4c3)n2)cc1S(N)(=O)=O` [Pazopanib], the “CI (combination index)” value turned out to be 0.57.
Same read-out and setting: next, `O=C(CCCCCCNC(=O)c1cnc(N(c2ccccc2)c2ccccc2)nc1)NO` [Ricolinostat, ACY-1215, Ricolinostat]: 0.69; `CC(C)[C@H](O)C(=O)N[C@@H](C)C(=O)N[C@@H]1C(=O)N(C)CCc2ccccc21` [Semagacestat]: 0.53.
